Data reported in article PMC11189555, “Aryl amino acetamides prevent Plasmodium falciparum ring development via targeting the lipid-transfer protein PfSTART1” (Nature Communications, 2024).
Several values for one entry are separate records, joined by “and”; a condition that tells them apart may be missing. Identical values can stand only once. Like-named read-outs stand apart in the source and are kept apart here.

Legend:
Hyp1-Nluc parasites = assay: Egress, invasion & recovery assay (Nluc bioluminescence, smears); assay type: cell-based, Plasmodium falciparum; settings: W-991 60 nM
Excerpt: To measure egress, invasion, and follow-up recovery in the presence of different compounds, we adapted the method developed in[11], using Hyp1-Nluc parasites. A full description is in the Supplementary Information. […]
and compound 4. Note that M-833 was first purchased from MolPort (MolPort -002-267-916) then made in-house at WEHI: the differences observed in EC50s across experiments are attributed to the different batches of M -833. […]
(§1) Egress, invasion & recovery assay. To measure egress, invasion and follow up recovery in the presence of different compounds, we adapted the method developed in6, using Hyp1-Nluc parasites7. These parasites episomally express the exported PEXEL protein Hyp1 (PF3D7_0113300) tagged with a NanoLuc luciferase (NLuc) and were selected with 2.5 nM WR99210 (Jacobus). Highly synchronised schizonts were obtained using ML10 (LifeArc) and sorbitol synchronisation, and Percoll-purified (the culture was gently layered over 67% Percoll (Cytiva) in RPMI, and centrifuged for 15 min at 1500 g and the schizont layer was collected and washed). In a 96-well plate, […]
cultures were set up in 4 replicates (3 replicates for the Nluc readout, and one replicate for Giemsa smears) with 1-2% parasitemia, 2% haematocrit, with the following […]
100 μg/ml heparin (Sigma) and 10 μM E64 (Sigma). The schizonts were allowed to egress and invade for 4 h at 37°C. A “background” plate without treatment was left in the fridge during this time. After 4 h, cultures were sorbitol -treated to eliminate schizonts that have not egressed. Smears were made every day for the following 3 days, and 5 μL of the resuspended cultures were taken to measure Nluc activity (to assess parasite’s presence). To measure Nluc activity, 5 μL culture were added to 45 μL NanoGlo reagent (1x Promega lysis buffer and NanoGlo reagent; Promega). The average luminescence of the background cultures was subtracted to the average luminescence of each sample. […]
The viable parasite value was then expressed in log units and parasite reduction ratio was calculated as a decrease in […]

CR-N330K parasites = assay: Growth inhibition assay (72 h, LDH activity); assay type: cell-based, Plasmodium falciparum
Description: Parasite growth assays with inhibitory compounds were performed as per[11] and are fully described in the Supplementary Information.
Molecular biology and transfection of P. falciparum: CRISPR method.
The full 5’ homology region of pfstart1 (either WT, N309K or N330K) was amplified from pPfSTART1-HA-2A-Neo-glmS with the same 5’ BglII primer and a new 3’ primer that replaced with PstI with SpeI and introduced a stop codon. The PCR product was then digested with BglII and SpeI and inserted into similarly digested p1.2 parasite vector2. The p1.2 vector had previously been inserted with a homology region amplified from the 3’ end of the pfstart1 gene (3’HB) to form a second homology block for double recombination. The primers used to amplify 3’HB are listed primers listed in […]
60 μg of p1.2-PfSTART1(WT/N309K/N330K) plasmid was linearised with KasI, precipitated in 3 M sodium acetate and ethanol (70% final concentration) overnight at -20°C. The DNA pellet was washed in cold 70% ethanol and resuspended in cytomix 3.
50 μ M of crRNA ( Table S 2) and 50 μM of tracRNA (Integrated DNA Technologies) were allowed to form a duplex (5 min at 95°C), and Cas9 enzyme (Integrated DNA Technologies) was added, and incubated for 20 min at room temperature 4. This crRNA -tracRNA -Cas9 mix was added to each DNA preparation and transfected to 3D7 ring parasites using the Bio -Rad Gene Pulser at 310 V and 950 μF.
Parasites containing the transfected DNA were selected using 2.5 nM WR99210 (Jacobus). Parasites lines were cloned using limiting dilution. Correct integration was tested by PCR (using primer START_5’UTR.F and START_Int.R1 , Table S 2), and sequencing was done using the primers START_3F and START_Int.R2 (Table S 2).
Growth inhibition assays. Synchronised ring-stage parasites (0.3-0.6% parasitemia, 2% haematocrit) were grown for 72 h in a serial-dilution of the compound under […]
and compound 4. Note that M-833 was first purchased from MolPort (MolPort -002-267-916) then made in-house at WEHI: the differences observed in EC50s across experiments are attributed to the different batches of M -833. For some experiments, 0, 0.25 or 2.5 mM of glucosamine (GlcN) was also added. Experiments were set up in technical duplicates or triplicates. Following a freeze -thaw cycle, lactate dehydrogenase (LDH) activity was assessed as an indicator of parasite growt h 5. 30 μL of parasite culture was incubated for 30 min in the dark with 75 μL Malstat mixture (0.1 M Tris pH 9.0, 20 g/L lactic acid, pH 7.5, 0.2% Triton-X100, 0.5 g/L acetylpyridine adenine dinucleotide (APAD, Sigma), 200 μg/mL nitroblue tetrazolium (NBT; Sigma), 1 μg/mL phenozine ethosulfate (PES; Sigma)). Absorbance was then measured at 650 nm, transformed using the formula below, plotted against the logarithm of the concentrations, and a non-linear regression (log(inhibitor) vs. response, variable slope) was calculated using GraphPad Prism to assess the half-inhibitory […]
Growth inhibition % = (1 − average(sample)− average(uRBC)) ∗ 100 […]
The DMSO samples were also used to assess growth of parasite in the presence of 0.25 and 2.5 mM GlcN (normalised by DMSO in 0 mM GlcN).
as §1

CC(C)(Nc1ccc(Cl)c(S(=O)(=O)N2CCOCC2)c1)C(=O)Nc1ccc(F)c(Cl)c1 [W-991]
parasite morphology at 72 h after 4 h treatment (Hyp1-Nluc parasites; M-833 2 µM, Giemsa smears): resembled the dysmorphic ring-stage parasites | parasite growth (Nluc bioluminescence) followed 72 h after 4 h treatment (Hyp1-Nluc parasites; schizonts treated 4 h: M-833 2 µM, ML10 30 nM, E64 10 µM, heparin 100 µg/mL, then washed off): virtually no recovery after three days | NORMALISED (growth inhibition, LDH absorbance) (CR-N330K parasites; 0 mM GlcN, dilution point 1 of 10, starting concentration 5 uM): 89.5809 and 91.9275 | NORMALISED (growth inhibition, LDH absorbance) (CR-N330K parasites; 0 mM GlcN, dilution point 2 of 10 from starting concentration 5 uM): 82.5498 and 75.3344 | NORMALISED (growth inhibition, LDH absorbance) (CR-N330K parasites; 0.25 mM GlcN, dilution point 1 of 10, starting concentration 5 uM): 90.7025 | NORMALISED (growth inhibition, LDH absorbance) (CR-N330K parasites; 0.25 mM GlcN, dilution point 2 of 10 from starting concentration 5 uM): 83.8227 | NORMALISED (growth inhibition, LDH absorbance) (CR-N330K parasites; 0.25 mM GlcN, dilution point 3 of 10 from starting concentration 5 uM): 67.3993 and 45.0538 | NORMALISED (growth inhibition, LDH absorbance) (CR-N330K parasites; 0.25 mM GlcN, dilution point 6 of 10 from starting concentration 5 uM): 5.889 and 5.4992 | NORMALISED (growth inhibition, LDH absorbance) (CR-N330K parasites; 2.5 mM GlcN, dilution point 1 of 10, starting concentration 5 uM): 66.3651 and 90.1101 | NORMALISED (growth inhibition, LDH absorbance) (CR-N330K parasites; 2.5 mM GlcN, dilution point 2 of 10 from starting concentration 5 uM): 62.0066 and 84.8366 | NORMALISED (growth inhibition, LDH absorbance) (CR-N330K parasites; 2.5 mM GlcN, dilution point 3 of 10 from starting concentration 5 uM): 63.3224 and 83.4457 | NORMALISED (growth inhibition, LDH absorbance) (CR-N330K parasites; 2.5 mM GlcN, dilution point 4 of 10 from starting concentration 5 uM): 52.3849 and 74.2725 | NORMALISED (growth inhibition, LDH absorbance) (CR-N330K parasites; 2.5 mM GlcN, dilution point 5 of 10 from starting concentration 5 uM): 40.7072 and 51.6938 | NORMALISED (growth inhibition, LDH absorbance) (CR-N330K parasites; 2.5 mM GlcN, dilution point 6 of 10 from starting concentration 5 uM): 28.9474 and 29.6954 | NORMALISED (growth inhibition, LDH absorbance) (CR-N330K parasites; 2.5 mM GlcN, dilution point 9 of 10 from starting concentration 5 uM): 10.3592 and 12.8289 | fold less susceptible than the 3D7 and CR-WT controls (CR-N330K parasites; Fig 4C): around 600 fold | fold sensitised on PfSTART1 knock-down with GlcN (CR-N330K parasites; Fig 4C): 7.3 fold | EC50 (CR-N330K parasites; Fig 4C, 0 mM GlcN, n = 3, read-out: EC50 W-991 (95% confidence interval)): < 0.7 µM | inhibition at 5 µM (CR-N330K parasites; Plasmodium falciparum, 0 mM GlcN, dilution point 1 of 10, starting concentration 5 uM, read-out: NORMALISED (growth inhibition, LDH absorbance)): 84.5% | inhibition (CR-N330K parasites; Plasmodium falciparum, 0 mM GlcN, starting concentration 5 uM, dilution point 1 of 10, read-out: Growth inhibition assay, NORMALISED): 90.1% | inhibition (CR-N330K parasites; Plasmodium falciparum, 0 mM GlcN, starting concentration 5 uM, dilution point 3 of 10, read-out: Growth inhibition assay, NORMALISED): 50.4% | inhibition (CR-N330K parasites; Plasmodium falciparum, 0 mM GlcN, starting concentration 5 uM, dilution point 4 of 10, read-out: Growth inhibition assay, NORMALISED): 20.2% | inhibition at up to 5 µM (CR-N330K parasites; Plasmodium falciparum, 0 mM GlcN, starting concentration 5 uM, dilution point 5 of 10, read-out: Growth inhibition assay, NORMALISED): 14.5% | inhibition (CR-N330K parasites; Plasmodium falciparum, 0 mM GlcN, starting concentration 5 uM, dilution point 6 of 10, read-out: Growth inhibition assay, NORMALISED): 9.02% | inhibition (CR-N330K parasites; Plasmodium falciparum, 0 mM GlcN, starting concentration 5 uM, dilution point 7 of 10, read-out: Growth inhibition assay, NORMALISED): 9.74% | inhibition (CR-N330K parasites; Plasmodium falciparum, 0 mM GlcN, starting concentration 5 uM, dilution point 8 of 10, read-out: Growth inhibition assay, NORMALISED): 9.24%
